PubChem BioAssay (NCI)
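A five-concentration, 48-hour dose response in 96-well plates underlies each endpoint, interpolated linearly between surrounding concentrations. Definition used: TGI = concentration required for complete inhibition of growth.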

Key:
Experiment in all cases: NCI-60 cell line screen, 48 h
786-0 renal = tested on: 786-0 renal
A549 NSCLC = tested on: A549 NSCLC
ACHN renal = tested on: ACHN renal
BT-549 breast = tested on: BT-549 breast
CAKI-1 renal = tested on: CAKI-1 renal
CCRF-CEM leukemia = tested on: CCRF-CEM leukemia
COLO 205 colon = tested on: COLO 205 colon
DU-145 prostate = tested on: DU-145 prostate
EKVX NSCLC = tested on: EKVX NSCLC
HCC-2998 colon = tested on: HCC-2998 colon
HCT-116 colon = tested on: HCT-116 colon
HCT-15 colon = tested on: HCT-15 colon
HOP-62 NSCLC = tested on: HOP-62 NSCLC
HOP-92 NSCLC = tested on: HOP-92 NSCLC
HS 578T breast = tested on: HS 578T breast
HT29 colon = tested on: HT29 colon
IGROV1 ovarian = tested on: IGROV1 ovarian
KM12 colon = tested on: KM12 colon
LOX IMVI melanoma = tested on: LOX IMVI melanoma
M14 melanoma = tested on: M14 melanoma
MALME-3M melanoma = tested on: MALME-3M melanoma
MCF7 breast = tested on: MCF7 breast
MDA-MB-231 breast = tested on: MDA-MB-231 breast
MDA-MB-435 = tested on: MDA-MB-435
MDA-N = tested on: MDA-N
NCI-H226 lung = tested on: NCI-H226 lung
NCI-H460 lung = tested on: NCI-H460 lung
NCI-H522 lung = tested on: NCI-H522 lung
NCI/ADR-RES ovarian = tested on: NCI/ADR-RES ovarian
OVCAR-4 ovarian = tested on: OVCAR-4 ovarian
OVCAR-5 ovarian = tested on: OVCAR-5 ovarian
OVCAR-8 ovarian = tested on: OVCAR-8 ovarian
PC-3 prostate = tested on: PC-3 prostate
RXF 393 renal = tested on: RXF 393 renal
SF-268 CNS = tested on: SF-268 CNS
SF-295 CNS = tested on: SF-295 CNS
SF-539 CNS = tested on: SF-539 CNS
SK-MEL-2 melanoma = tested on: SK-MEL-2 melanoma
SK-MEL-28 melanoma = tested on: SK-MEL-28 melanoma
SK-MEL-5 melanoma = tested on: SK-MEL-5 melanoma
SK-OV-3 ovarian = tested on: SK-OV-3 ovarian
SN12C renal = tested on: SN12C renal
SNB-19 CNS = tested on: SNB-19 CNS
SNB-75 CNS = tested on: SNB-75 CNS
SR leukemia = tested on: SR leukemia
T-47D breast = tested on: T-47D breast
TK-10 renal = tested on: TK-10 renal
U251 CNS = tested on: U251 CNS
UACC-257 melanoma = tested on: UACC-257 melanoma
UACC-62 melanoma = tested on: UACC-62 melanoma
UO-31 renal = tested on: UO-31 renal
A498 renal = tested on: A498 renal
HL-60(TB) leukemia = tested on: HL-60(TB) leukemia
K-562 leukemia = tested on: K-562 leukemia
MOLT-4 leukemia = tested on: MOLT-4 leukemia
NCI-H23 lung = tested on: NCI-H23 lung
OVCAR-3 ovarian = tested on: OVCAR-3 ovarian
RPMI-8226 leukemia = tested on: RPMI-8226 leukemia
SW-620 colon = tested on: SW-620 colon

## CCN1/C(=C/C#C/C(C)=C\c2sc3ccc(Cl)cc3[n+]2CC)Sc2ccc(Cl)cc21
786-0 renal
  TGI: 15.1 µM
A549 NSCLC
  TGI: 22 µM
ACHN renal
  TGI: 14.8 µM
BT-549 breast
  TGI: 6 µM
CAKI-1 renal
  TGI: 7.13 µM
CCRF-CEM leukemia
  TGI: > 100 µM
COLO 205 colon
  TGI: 3.21 µM
DU-145 prostate
  TGI: 15.5 µM
EKVX NSCLC
  TGI: 20.8 µM
HCC-2998 colon
  TGI: 17.6 µM
HCT-116 colon
  TGI: 12.3 µM
HCT-15 colon
  TGI: > 100 µM
HOP-62 NSCLC
  TGI: 29 µM
HOP-92 NSCLC
  TGI: 5.52 µM
HS 578T breast
  TGI: 28.8 µM
HT29 colon
  TGI: 14 µM
IGROV1 ovarian
  TGI: 14.5 µM
KM12 colon
  TGI: 19.4 µM
LOX IMVI melanoma
  TGI: 14.6 µM
M14 melanoma
  TGI: 16.1 µM
MALME-3M melanoma
  TGI: 6.84 µM
MCF7 breast
  TGI: 15.3 µM
MDA-MB-231 breast
  TGI: 19.7 µM
MDA-MB-435
  TGI: 13.7 µM
MDA-N
  TGI: 12.9 µM
NCI-H226 lung
  TGI: 21.9 µM
NCI-H460 lung
  TGI: > 100 µM
NCI-H522 lung
  TGI: 6.02 µM
NCI/ADR-RES ovarian
  TGI: 80.4 µM
OVCAR-4 ovarian
  TGI: > 100 µM
OVCAR-5 ovarian
  TGI: 21.3 µM
OVCAR-8 ovarian
  TGI: 17 µM
PC-3 prostate
  TGI: 9.11 µM
RXF 393 renal
  TGI: 21.3 µM
SF-268 CNS
  TGI: 21.4 µM
SF-295 CNS
  TGI: 14.9 µM
SF-539 CNS
  TGI: 16.1 µM
SK-MEL-2 melanoma
  TGI: 4.85 µM
SK-MEL-28 melanoma
  TGI: 26.5 µM
SK-MEL-5 melanoma
  TGI: 5.26 µM
SK-OV-3 ovarian
  TGI: 22 µM
SN12C renal
  TGI: 16.1 µM
SNB-19 CNS
  TGI: 18.9 µM
SNB-75 CNS
  TGI: 9.98 µM
SR leukemia
  TGI: > 100 µM
T-47D breast
  TGI: 17.6 µM
TK-10 renal
  TGI: > 100 µM
U251 CNS
  TGI: 23.2 µM
UACC-257 melanoma
  TGI: 22 µM
UACC-62 melanoma
  TGI: 13.6 µM
UO-31 renal
  TGI: 14.5 µM

## COC1(OC)c2occc2C(=N)c2ccc(=O)oc21
786-0 renal
  TGI: > 100 µM
A498 renal
  TGI: > 100 µM
A549 NSCLC
  TGI: > 100 µM
ACHN renal
  TGI: > 100 µM
BT-549 breast
  TGI: > 100 µM
CAKI-1 renal
  TGI: > 100 µM
CCRF-CEM leukemia
  TGI: > 100 µM
COLO 205 colon
  TGI: > 100 µM
DU-145 prostate
  TGI: > 100 µM
EKVX NSCLC
  TGI: > 100 µM
HCC-2998 colon
  TGI: > 100 µM
HCT-116 colon
  TGI: > 100 µM
HCT-15 colon
  TGI: > 100 µM
HL-60(TB) leukemia
  TGI: > 100 µM
HOP-62 NSCLC
  TGI: > 100 µM
HOP-92 NSCLC
  TGI: > 100 µM
HS 578T breast
  TGI: > 100 µM
HT29 colon
  TGI: > 100 µM
IGROV1 ovarian
  TGI: > 100 µM
K-562 leukemia
  TGI: > 100 µM
LOX IMVI melanoma
  TGI: > 100 µM
M14 melanoma
  TGI: > 100 µM
MALME-3M melanoma
  TGI: 33.5 µM
MCF7 breast
  TGI: > 100 µM
MDA-MB-231 breast
  TGI: > 100 µM
MDA-MB-435
  TGI: > 100 µM
MDA-N
  TGI: > 100 µM
MOLT-4 leukemia
  TGI: > 100 µM
NCI-H226 lung
  TGI: > 100 µM
NCI-H23 lung
  TGI: > 100 µM
NCI-H460 lung
  TGI: > 100 µM
NCI-H522 lung
  TGI: > 100 µM
OVCAR-3 ovarian
  TGI: > 100 µM
OVCAR-4 ovarian
  TGI: > 100 µM
OVCAR-5 ovarian
  TGI: > 100 µM
PC-3 prostate
  TGI: > 100 µM
RPMI-8226 leukemia
  TGI: > 100 µM
RXF 393 renal
  TGI: > 100 µM
SF-268 CNS
  TGI: > 100 µM
SF-295 CNS
  TGI: > 100 µM
SF-539 CNS
  TGI: > 100 µM
SK-MEL-2 melanoma
  TGI: > 100 µM
SK-MEL-28 melanoma
  TGI: > 100 µM
SK-MEL-5 melanoma
  TGI: 49.2 µM
SK-OV-3 ovarian
  TGI: > 100 µM
SN12C renal
  TGI: > 100 µM
SNB-19 CNS
  TGI: > 100 µM
SR leukemia
  TGI: > 100 µM
SW-620 colon
  TGI: > 100 µM
T-47D breast
  TGI: > 100 µM
TK-10 renal
  TGI: > 100 µM
U251 CNS
  TGI: > 100 µM
UACC-257 melanoma
  TGI: > 100 µM
UACC-62 melanoma
  TGI: > 100 µM
UO-31 renal
  TGI: > 100 µM
